Experimental data published in publication PMC11414077, “Novel thiazole-based cyanoacrylamide derivatives: DNA cleavage, DNA/BSA binding properties and their anticancer behaviour against colon and breast cancer cells” (BMC Chemistry, 2024).

Legend:
[1] = tested on: MDA-MB-231 cells; experiment: MTT cell viability assay, MDA-MB-231; assay type: cell-based; details: Homo sapiens; MDA-MB-231, dark conditions
Method: (§1) The cytotoxicity of 3b and 3c against MDA-MB-231 and HCT116 cell lines, with and without illumination, was assessed using the MTT test. Two human cancer cell lines, including MDA-MB-231 and HCT116 cell lines, were purchased from the National Research Centre, Dokki, Cairo, Egypt. Briefly, 96-well plates were seeded with cells (5 × 10^3 cells/well) and left overnight. The compounds dissolved in DMSO were then applied to the cells following the serial dilution procedure in the range of 0–100 µM. The cells were then incubated for an additional 20 h. Subsequently, the cells were exposed to UV light for 20 min at a distance of 10 cm. To study the effects of the illumination, a control plate was created under the same circumstances but without illumination. The two plates were incubated for a further 20 h. After that, PBS was used to wash the cells and MTT solution (0.5 mg/ml) was added. To dissolve the generated formazan crystals, the solution was replaced with 100 µl of DMSO per well after 4 h of incubation. An ELISA reader operating at 492 nm was used to measure the absorbance after 15 min of plate shaking. By relating the absorbance of treated and negative control cells, the relative cell viability was calculated. GraphPad Prism software was used to calculate the half inhibitory concentration (IC50). Doxorubicin (0–100 μM) was utilized as a positive cytotoxicity control in the usual dark environment, while the vehicle (DMSO, 0.1%) was used as a negative control.

[2] = tested on: CT-DNA-EtBr; experiment: Ethidium bromide quenching (displacement) assay; assay type: binding, calf; details: for kq / KSV: CT-DNA-EtBr; for kq: τ0 10^−8 s; for reduction in fluorescence intensity: EtBr 20 µM, CT-DNA 100 µM, 3b 0–160 µM, 3c 0–80 µM; for KSV: Stern–Volmer, room temperature
Method: EtBr is a conventional intercalator whose fluorescence intensity intensifies in response to CT-DNA interaction. Solution of CT-DNA-EtBr with final concentrations of EtBr (20 µM) and CT-DNA (100 µM) in Tris–HCl buffer solution (pH = 7.1) was prepared, then compounds were solubilized in DMSO, added to the prepared solution to attain a range of concentration (0–160 µM) and (0–80 µM) for 3b and 3c, respectively. Then, the mixtures were incubated 3 min after each addition and the emission spectra (540–710 nm) were recorded using an excitation wavelength of 520 nm.
The interaction mode between compound and CT-DNA can be discriminated through fluorescence spectroscopy with the EtBr–CT-DNA system. EtBr is a classic indicator of intercalation where an intense fluorescence signal is emitted from the EtBr-CT-DNA system through intercalation of EtBr between adjacent DNA base pairs with no obvious signal for unaccompanied EtBr. […] The Stern–Volmer equation was used for the study of the effect of quenchers on the CT-DNA-EtBr system. F0/F= 1+KsvQ= 1+kqτ0[Q] where F0 and F are fluorescence intensities in the absence and presence of the compound used for quenching, respectively; KSV is a linear Stern–Volmer quenching constant; [Q] is the concentration of the quenching compound and τ0 is the fluorescence lifetime of the fluorophore (10^−8 s) in absence of the compound responsible for quenching. KSV for 3b and 3c is computed from the linear regression plot of F0/F against [Q]. Also, the binding constant (Kb) and the number of binding sites (n) were determined by the Scatchard method.
log((F0-F)/F)=logKb+nlog[Q]
Kb has been assigned as the intercept and n as the slope in the linear plotting of log((F0–F)/F) versus log[Q]. The detailed results for 3b and 3c were computed and depicted in Table 1.

[3] = tested on: CT-DNA; experiment: CT-DNA UV-Visible absorption spectrophotometric titration; assay type: binding, calf; details: compound 25 μM, CT-DNA 0–60 μM; peak 423 nm (3b), 359 nm (3c)
Method: CT-DNA stock solution was prepared by dissolving CT-DNA in Tris/NaCl buffer (pH 7.1). Then, it was stored at 4°C and was manipulated within 4 days of preparation. The concentration was estimated by applying the equation C=A260nm/ε×b where C is the concentration of DNA solution, A is the absorbance at wavelength 260 nm, b is the path length and ε is the molar extinction coefficient of DNA that equals 6600 M^−1 cm^−1. The purity also was calculated using the absorbance ratio at wavelength 260 and 280 respectively, which was 1.8 indicating free DNA from protein contamination. Stock solutions of compounds 3b and 3c were prepared by dissolving in DMSO.
The interaction between the selected compounds (3b and 3c) and CT-DNA was assessed through the spectrophotometric titration method. In brief, a fixed concentration of compounds (25 μM) was mixed with an accumulative addition of CT-DNA (0–60 μM) at room temperature with a constant DMSO percentage of 5%. After 5 min from each addition, the UV–Vis absorption spectrum (250–650 nm) was recorded. The hyper/hypochromic percentage change at the characteristic peak of 3b and 3c was assessed using the formula: H%=Afree-Abound/Abound×100 . […] Standard Gibbs free energy (ΔG°) was calculated using the equation ΔG° = − RTlnKb (where T is the temperature, 298 K; R is the universal gas constant, 8.314 J K^−1 mol^−1).

[4] = tested on: HCT116 cells; experiment: MTT cell viability assay, HCT116; assay type: cell-based; details: Homo sapiens, HCT-116; HCT116, absence of illumination (dark)
Method: as §1

[5] = target: T1, BSA (Bos taurus, UniProt P02769); experiment: BSA UV-Visible absorption spectrophotometric titration; assay type: binding, bovine; details: at 277 nm, BSA 15 μM, compound 0–40 μM
T1 construct: purchased BioBasic Inc. (Canada)
Method: BSA was dissolved in Tris/NaCl buffer (pH 7.1) to prepare the BSA stock solution, which was then kept at 4°C and utilized within a week after preparation. The concentration was evaluated by applying the equation C=A280nm/ε×b where C is the concentration of protein solution, A is the absorbance at wavelength 280 nm, b is the path length and ε is molar extinction coefficient of protein that equals 44,300 M^−1 cm^−1.
The interaction was evaluated through dilution of BSA to 15 μM in Tris/NaCl (pH 7.1) during the spectrophotometric titration. After that, the compounds dissolved in DMSO were added with a range of increasing concentration (0–40 μM), where the final DMSO percentage is 5%. UV–Vis absorption spectrum measurement for each concentration was assessed by Shimadzu UV-3101 PC NIR spectrophotometer after 3 min of each addition. The Kb for compounds 3b and 3c was calculated using equation [54]: 1/Aobs-A0=1/Ac-A0+1/KbAc-A0[compound] where A0, Aobs and Ac are absorbance of solution in the absence, various concentrations, and saturation of the compound at the characteristic peak, respectively. Where Kb is estimated from the plot of 1/Aobs-A0 versus 1/[Drug] .

[6] = target: T1, BSA; experiment: Tryptophan quenching assay with BSA; assay type: binding, bovine; details: for kq / n (binding site numbers) / Kb: BSA; for n (binding site numbers) / Kb: Scatchard method; for Kb / KSV: room temperature; for KSV: Stern–Volmer, BSA 15 µM, λex 289 nm
Method: BSA (15 µM) solution was prepared in Tris/HCl buffer solution (pH = 7.1) and mixed with serial concentrations of compounds 3b and 3c (0–40 µM), achieving 5% final concentration of DMSO. Following 3 min incubation after each addition, fluorescence quenching spectra were recorded from 300 to 450 nm using a spectrofluorometer with an excitation wavelength of 289 nm.
Fluorescence investigations could be used to conduct a specified analysis of whether synthetic molecules bind to biomolecules as BSA. It is widely perceived that predominantly tryptophan (Trp) is responsible for the inherited fluorescence among the other two amino acids [tyrosine (Tyr) and phenylalanine (Phe)] in the BSA [88]. The tryptophan emission spectrum is frequently altered because of protein conformational variation, subunit interactions, substrate binding, or denaturation. Reduced fluorescence emission intensity is observed for 3b and 3c, which may be due to disrupted BSA structure altering the tryptophan microenvironments. Moreover, the internalization of fluorophore residues into the protein's hydrophobic core is due to protein folding or related to the hydrophobic amino acid residues around Trp, such as Leu, Tyr, and phe. […] Also, a linear plot of F0/F against the concentration of 3b and 3c was used for computing the values of KSV (9.0 × 10^4 and 9.9 × 10^4 M^−1) and kq (9.0 × 10^12 and 9.9 × 10^12 M^−1 s^−1) for the titled compounds (3b and 3c, respectively). […] The negative values of ΔG also supported the UV–Vis results of free energy changes and implied the spontaneity of 3b/3c–BSA binding, where the interaction parameters were illustrated in Table 2.

T1 sequence (P02769 25-607): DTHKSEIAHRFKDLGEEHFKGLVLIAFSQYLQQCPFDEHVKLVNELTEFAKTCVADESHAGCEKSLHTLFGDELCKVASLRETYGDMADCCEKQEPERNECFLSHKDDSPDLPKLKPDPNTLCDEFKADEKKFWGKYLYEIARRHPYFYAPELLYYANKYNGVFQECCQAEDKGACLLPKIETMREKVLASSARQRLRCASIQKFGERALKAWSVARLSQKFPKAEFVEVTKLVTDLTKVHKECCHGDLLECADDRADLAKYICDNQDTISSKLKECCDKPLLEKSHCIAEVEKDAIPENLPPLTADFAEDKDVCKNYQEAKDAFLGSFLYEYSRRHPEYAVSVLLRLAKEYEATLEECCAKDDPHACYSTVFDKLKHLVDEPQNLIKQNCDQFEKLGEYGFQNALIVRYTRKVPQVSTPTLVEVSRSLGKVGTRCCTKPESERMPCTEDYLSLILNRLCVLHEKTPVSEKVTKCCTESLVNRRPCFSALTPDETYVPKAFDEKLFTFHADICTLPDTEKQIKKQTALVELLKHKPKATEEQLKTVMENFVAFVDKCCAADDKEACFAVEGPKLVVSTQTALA

IC50 [1] | melting point | IC50 [4] | hyperchromicity [5] | kq [6] | n (binding site numbers) [6] | Kb [6] | KSV [6] | Structure (SMILES) | kq [2] | reduction in fluorescence intensity [2] | KSV [2] | hypochromism [3]
91 µM | 252 to 256 °C | 72 µM | ~ 52.2% | 9e+12 M⁻¹ s⁻¹ | 1.3 | 30 M⁻¹ | 90000 M⁻¹ | N#CC(=Cc1cn(-c2ccccc2)nc1-c1cccs1)C(=O)Nc1nccs1 [Compound 3b, 2-Cyano-3-(1-phenyl-3-(thiophen-2-yl)-1H-pyrazol-4-yl)-N-(thiazol-2-yl)acrylamide] | 2.9e+11 M⁻¹ s⁻¹ | ~ 33.3% | 2900 M⁻¹ | ~ 14%
64 µM | 250 to 252 °C | 82 µM | ~ 48.2% | 9.9e+12 M⁻¹ s⁻¹ | 1.3 | 34 M⁻¹ | 99000 M⁻¹ | N#CC(=Cc1cn(-c2ccccc2)nc1-c1cccnc1)C(=O)Nc1nccs1 [Compound 3c, 2-Cyano-3-(1-phenyl-3-(pyridin-3-yl)-1H-pyrazol-4-yl)-N-(thiazol-2-yl)acrylamide] | 5.6e+11 M⁻¹ s⁻¹ | ~ 30.7% | 5600 M⁻¹ | ~ 40%

The next lines start with the compound.

Structure (SMILES) | IC50 [1] | melting point | IC50 [4] | hyperchromicity [5] | kq [6] | n (binding site numbers) [6] | Kb [6] | KSV [6] | kq [2] | reduction in fluorescence intensity [2] | KSV [2] | hypochromism [3]
Cc1ccc(-c2nn(-c3ccccc3)cc2C=C(C#N)C(=O)Nc2nccs2)cc1 [Compound 3d, 2-Cyano-3-(1-phenyl-3-(p-tolyl)-1H-pyrazol-4-yl)-N-(thiazol-2-yl)acrylamide] |  | 255 to 257 °C |  |  |  |  |  |  |  |  |  | 
N#CC(=Cc1cn(-c2ccccc2)nc1-c1ccc(Cl)cc1)C(=O)Nc1nccs1 [Compound 3f, 3-(3-(4-Chlorophenyl)-1-phenyl-1H-pyrazol-4-yl)-2-cyano-N-(thiazol-2-yl)acrylamide] |  | 270 to 272 °C |  |  |  |  |  |  |  |  |  | 
COc1cccc2c1C(=O)c1c(O)c3c(c(O)c1C2=O)C[C@@](O)(C(=O)CO)C[C@@H]3O[C@H]1C[C@H](N)[C@H](O)[C@H](C)O1 [doxorubicin, reference compound] | 64.8 µM |  | 40 µM |  |  |  |  |  |  |  |  | 
